Assay results: PubChem BioAssay AID330 (DTP/NCI, 2004)
Values joined by “and” are separate entries in the source; they are usually repeats but may differ in a detail not shown here. Identical values can stand only once. Inconclusive results and toxic doses are left out. Rule for the calls: active = survival T/C of 150% or more; inactive = T/C below 125% in these data.

Test system: P388 leukemia ip, CD2F1 mice, survival T/C
Assay: NCI In Vivo Anticancer Drug Screen. Data for tumor model P388 Leukemia (intraperitoneal) in CD2F1 (CDF1) mice
Details: endpoint: median survival time, higher = longer survival
Summary of the method: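 Mice carrying the transplanted tumor received test compound or vehicle. Survival was recorded in each group, and the value is the treated-group measurement divided by that of the vehicle-treated control group.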

[1] = dose: 50.0 mg/kg/injection, schedule: Q01DX009 (ip), vehicle: Klucel (hydroxypropylcellulose) (HPC)
[2] = dose: 100.0 mg/kg/injection, schedule: Q01DX009 (ip), vehicle: Klucel (hydroxypropylcellulose) (HPC)
[3] = dose: 200.0 mg/kg/injection, schedule: Q01DX009 (ip), vehicle: Klucel (hydroxypropylcellulose) (HPC)
[4] = dose: 50.0 mg/kg/injection, schedule: Q01DX005 (ip), vehicle: saline with Tween-80
[5] = dose: 100.0 mg/kg/injection, schedule: Q01DX005 (ip), vehicle: saline with Tween-80
[6] = dose: 200.0 mg/kg/injection, schedule: Q01DX005 (ip), vehicle: saline with Tween-80
[7] = dose: 25.0 mg/kg/injection, schedule: Q01DX009 (ip), vehicle: saline with Tween-80
[8] = dose: 50.0 mg/kg/injection, schedule: Q01DX005 (ip), vehicle: Klucel (hydroxypropylcellulose) (HPC)

Measured: T/C

O=C(NC(Cc1cccs1)C(=O)O)c1ccccc1 (stereo unspecified)
inactive: dose: 25.0 mg/kg/injection, schedule: Q01DX009 (ip), vehicle: other 102 % of control | dose: 50.0 mg/kg/injection, schedule: Q01DX009 (ip), vehicle: other 96 % of control | dose: 100.0 mg/kg/injection, schedule: Q01DX009 (ip), vehicle: other 102 % of control

O=[N+]([O-])c1ccccc1N=NNc1ccccc1
inactive: [1] 95 % of control | [2] 91 % of control | [3] 104 % of control

O=C1CCCCCCCCCCC1[N+](=O)[O-] (stereo unspecified)
inactive: [4] 95 % of control | [5] 92 % of control | [6] 93 % of control

Clc1ccc(N=Cc2c3ccccc3cc3ccccc23)c(Cl)c1
inactive: dose: 6.25 mg/kg/injection, schedule: Q01DX009 (ip), vehicle: saline with Tween-80 101 % of control | dose: 12.5 mg/kg/injection, schedule: Q01DX009 (ip), vehicle: saline with Tween-80 101 % of control | [7] 93 % of control

CC(C)(/C=N/O)N1CC=CCC1
inactive: dose: 12.5 mg/kg/injection, schedule: Q04DX002 (ip), vehicle: saline with Tween-80 101 % of control | dose: 25.0 mg/kg/injection, schedule: Q04DX002 (ip), vehicle: saline with Tween-80 100 % of control | dose: 50.0 mg/kg/injection, schedule: Q04DX002 (ip), vehicle: saline with Tween-80 97 % of control

C[SiH]12(OC(C(F)(F)F)(C(F)(F)F)c3ccccc31)OC(C(F)(F)F)(C(F)(F)F)c1ccccc12
inactive: dose: 25.0 mg/kg/injection, schedule: Q01DX005 (ip), vehicle: saline with Tween-80 100 % of control | [4] 102 % of control

NSc1ccc([N+](=O)[O-])cc1
inactive: dose: 25.0 mg/kg/injection, schedule: Q01DX001 (ip), vehicle: other 109 % of control | dose: 50.0 mg/kg/injection, schedule: Q01DX001 (ip), vehicle: other 100 % of control

Cc1cc(C2C(=O)c3ccccc3C2=O)cc(C(C)(C)C)c1O
inactive: dose: 100.0 mg/kg/injection, schedule: Q04DX002 (ip), vehicle: saline 115 % of control | dose: 200.0 mg/kg/injection, schedule: Q04DX002 (ip), vehicle: saline 107 % of control | dose: 400.0 mg/kg/injection, schedule: Q04DX002 (ip), vehicle: saline 96 % of control

O=c1[nH]nc(-c2ccc(Cl)cc2)c2cc(Cl)c(Cl)cc12
inactive: dose: 3.12 mg/kg/injection, schedule: Q04DX002 (ip), vehicle: distilled water + Tween-80 90 % of control | dose: 6.25 mg/kg/injection, schedule: Q04DX002 (ip), vehicle: distilled water + Tween-80 96 % of control | dose: 12.5 mg/kg/injection, schedule: Q04DX002 (ip), vehicle: distilled water + Tween-80 93 % of control | dose: 25.0 mg/kg/injection, schedule: Q04DX002 (ip), vehicle: distilled water + Tween-80 93 % of control | dose: 50.0 mg/kg/injection, schedule: Q04DX002 (ip), vehicle: distilled water + Tween-80 90 % of control | dose: 100.0 mg/kg/injection, schedule: Q04DX002 (ip), vehicle: distilled water + Tween-80 95 % of control | dose: 200.0 mg/kg/injection, schedule: Q04DX002 (ip), vehicle: distilled water + Tween-80 102 % of control

O=C(O)c1cc(O)cc(C(=O)O)c1
inactive: [7] 99 % of control | dose: 50.0 mg/kg/injection, schedule: Q01DX009 (ip), vehicle: saline with Tween-80 99 % of control | dose: 100.0 mg/kg/injection, schedule: Q01DX009 (ip), vehicle: saline with Tween-80 94 % of control

Cc1ccc(C(=O)Nc2ccc(N(CCCl)CCCl)cc2)cc1
inactive: dose: 6.25 mg/kg/injection, schedule: Q01DX001 (ip), vehicle: Klucel (hydroxypropylcellulose) (HPC) 102 % of control | dose: 12.5 mg/kg/injection, schedule: Q01DX001 (ip), vehicle: Klucel (hydroxypropylcellulose) (HPC) 108 % of control | dose: 25.0 mg/kg/injection, schedule: Q01DX001 (ip), vehicle: Klucel (hydroxypropylcellulose) (HPC) 110 % of control

CCC1=CCC2C(=O)C3CC(CC)=CCC3C(=O)C2C1 (stereo unspecified)
inactive: dose: 12.5 mg/kg/injection, schedule: Q01DX005 (ip), vehicle: Klucel (hydroxypropylcellulose) (HPC) 97 % of control | dose: 25.0 mg/kg/injection, schedule: Q01DX005 (ip), vehicle: Klucel (hydroxypropylcellulose) (HPC) 92 % of control | [8] 87 % of control and 88 % of control

CNC(=O)c1ccccc1C(=O)c1ccccc1OC
inactive: [8] 104 % of control | dose: 100.0 mg/kg/injection, schedule: Q01DX005 (ip), vehicle: Klucel (hydroxypropylcellulose) (HPC) 99 % of control | dose: 200.0 mg/kg/injection, schedule: Q01DX005 (ip), vehicle: Klucel (hydroxypropylcellulose) (HPC) 97 % of control

CCCCn1c(Cl)c(/C=N\Nc2ccc([N+](=O)[O-])cc2[N+](=O)[O-])c2ccccc21
inactive: dose: 100.0 mg/kg/injection, schedule: Q04DX003 (ip), vehicle: saline with Tween-80 94 % of control | dose: 200.0 mg/kg/injection, schedule: Q04DX003 (ip), vehicle: saline with Tween-80 90 % of control | dose: 400.0 mg/kg/injection, schedule: Q04DX003 (ip), vehicle: saline with Tween-80 88 % of control

CCOCC(=O)N[C@H]1CCc2cc(OC)c(OC)c(OC)c2-c2ccc(OC)c(=O)cc21
active: dose: 0.31 mg/kg/injection, schedule: Q01DX009 (ip), vehicle: water 150 % of control | dose: 0.63 mg/kg/injection, schedule: Q01DX009 (ip), vehicle: water 171 % of control | dose: 1.25 mg/kg/injection, schedule: Q01DX009 (ip), vehicle: water 198 % of control and 221 % of control

COc1cc(C(CC#N)CC#N)cc(OC)c1OC
inactive: [4] 96 % of control | [5] 99 % of control | [6] 97 % of control

Cn1/c(=N\N)sc2ccc(S(=O)(=O)O)cc21
inactive: [1] 97 % of control | [2] 103 % of control | [3] 105 % of control

COc1cc2c(cc1OC)C13CCN4CC5=CCOC(CC(=O)O)C(C5CC41)C3N2 (stereo unspecified)
inactive: dose: 15.0 mg/kg/injection, schedule: Q01DX005 (ip), vehicle: saline 100 % of control | dose: 30.0 mg/kg/injection, schedule: Q01DX005 (ip), vehicle: saline 96 % of control | dose: 60.0 mg/kg/injection, schedule: Q01DX005 (ip), vehicle: saline with Tween-80 99 % of control | dose: 60.0 mg/kg/injection, schedule: Q01DX005 (ip), vehicle: saline 94 % of control and 93 % of control | dose: 120.0 mg/kg/injection, schedule: Q01DX005 (ip), vehicle: saline 96 % of control

O=NNc1ccc(Sc2ccc3ccccc3c2)cn1
inactive: dose: 3.12 mg/kg/injection, schedule: Q01DX009 (ip), vehicle: saline 114 % of control and 122 % of control | dose: 6.25 mg/kg/injection, schedule: Q01DX009 (ip), vehicle: saline 120 % of control | dose: 12.5 mg/kg/injection, schedule: Q01DX009 (ip), vehicle: saline 114 % of control

COc1cc(C)c(/C(=N/O)n2nnc(-c3ccc(Cl)cc3)n2)c(C)c1
inactive: dose: 100.0 mg/kg/injection, schedule: Q01DX001 (ip), vehicle: saline with Tween-80 123 % of control | dose: 200.0 mg/kg/injection, schedule: Q01DX001 (ip), vehicle: saline with Tween-80 114 % of control | dose: 400.0 mg/kg/injection, schedule: Q01DX001 (ip), vehicle: saline with Tween-80 95 % of control

O=P(N1CC1)(N1CC1)N1CC1
active: dose: 3.0 mg/kg/injection, schedule: Q01DX009 (ip), vehicle: saline 216 % of control

[NH-]C(CCC(N)=O)C(=O)O.[NH-]C(CCCCN)C(=O)O.[Zn+2] (stereo unspecified)
inactive: dose: 12.5 mg/kg/injection, schedule: Q01DX005 (ip), vehicle: saline 102 % of control | dose: 25.0 mg/kg/injection, schedule: Q01DX005 (ip), vehicle: saline 105 % of control | dose: 50.0 mg/kg/injection, schedule: Q01DX005 (ip), vehicle: saline 110 % of control

CC(=O)Nc1ccc(N=NN(C)c2ccccc2)cc1
inactive: dose: 50.0 mg/kg/injection, schedule: Q01DX001 (ip), vehicle: saline 104 % of control | dose: 100.0 mg/kg/injection, schedule: Q01DX001 (ip), vehicle: saline 100 % of control

O=C(C=C(C(F)(F)F)C(F)(F)F)c1ccccc1[N+](=O)[O-]
inactive: dose: 1.32 mg/kg/injection, schedule: Q04DX003 (ip), vehicle: other 109 % of control | dose: 2.0 mg/kg/injection, schedule: Q04DX003 (ip), vehicle: other 100 % of control | dose: 3.0 mg/kg/injection, schedule: Q04DX003 (ip), vehicle: other 109 % of control | dose: 4.5 mg/kg/injection, schedule: Q04DX003 (ip), vehicle: other 104 % of control | dose: 6.25 mg/kg/injection, schedule: Q04DX003 (ip), vehicle: other 109 % of control | dose: 25.0 mg/kg/injection, schedule: Q04DX003 (ip), vehicle: other 86 % of control
